Measurements as given in ChEMBL document CHEMBL1154406, “Can the Etest correctly determine the MICs of beta-lactam and cephalosporin antibiotics for beta-lactamase-negative ampicillin-resistant Haemophilus influenzae?” (2007).
In brackets after ≈: the same amount, converted by molar mass.

Columns and labels:
Assay type in all cases: functional
Haemophilus influenzae [1] = assay: Antimicrobial activity against beta-lactamase negative ampicillin-susceptible Haemophilus influenzae by broth microdilution method
Haemophilus influenzae [2] = assay: Antimicrobial activity against beta-lactamase negative ampicillin-resistant Haemophilus influenzae by E-test
Haemophilus influenzae [3] = assay: Antimicrobial activity against beta-lactamase negative ampicillin-susceptible Haemophilus influenzae by E-test
Haemophilus influenzae [4] = assay: Antimicrobial activity against beta-lactamase negative ampicillin-resistant Haemophilus influenzae by broth microdilution method
Haemophilus influenzae [5] = assay: Antimicrobial activity against beta-lactamase positive amoxicillin/clavulanate-resistant Haemophilus influenzae by E-test
Haemophilus influenzae [6] = assay: Antimicrobial activity against beta-lactamase positive ampicillin-resistant Haemophilus influenzae by E-test
Haemophilus influenzae [7] = assay: Antimicrobial activity against beta-lactamase positive amoxicillin/clavulanate-resistant Haemophilus influenzae by broth microdilution method
Haemophilus influenzae [8] = assay: Antimicrobial activity against beta-lactamase positive ampicillin-resistant Haemophilus influenzae by broth microdilution method
Haemophilus influenzae [9] = assay: Antimicrobial activity against Haemophilus influenzae expressing mutant ftsI gene

Structure (SMILES) | MIC (Haemophilus influenzae [1]) | MIC (Haemophilus influenzae [2]) | MIC (Haemophilus influenzae [3]) | MIC (Haemophilus influenzae [4]) | MIC (Haemophilus influenzae [5]) | MIC (Haemophilus influenzae [6]) | MIC (Haemophilus influenzae [7]) | MIC (Haemophilus influenzae [8]) | MIC (Haemophilus influenzae [9])
CO/N=C(\C(=O)N[C@@H]1C(=O)N2C(C(=O)O)=C(CSc3nc(=O)c(O)nn3C)CS[C@H]12)c1csc(N)n1 [CEFTRIAXONE] | < 0.06 µg/mL | 0.012 µg/mL (≈ 0.0216 µM) | 0.008 µg/mL (≈ 0.0144 µM) | 0.06 µg/mL (≈ 0.108 µM) | 0.25 µg/mL | 0.008 µg/mL (≈ 0.0144 µM) |  |  | 
CC1(C)S[C@@H]2[C@H](NC(=O)[C@H](N)c3ccccc3)C(=O)N2[C@H]1C(=O)O [AMPICILLIN] | 0.25 µg/mL (≈ 0.715 µM) | 1 µg/mL (≈ 2.86 µM) | 0.25 µg/mL (≈ 0.715 µM) | 1 µg/mL (≈ 2.86 µM) | 256 µg/mL | 4 µg/mL (≈ 11.4 µM) | 256 µg/mL | 32 µg/mL (≈ 91.6 µM) | 
CO/N=C(\C(=O)N[C@@H]1C(=O)N2C(C(=O)O)=C(COC(N)=O)CS[C@H]12)c1ccco1 [CEFUROXIME] |  |  |  |  |  |  |  |  | 0.5 µg/mL (≈ 1.18 µM)
C=CC1=C(C(=O)O)N2C(=O)[C@@H](NC(=O)/C(=N\OCC(=O)O)c3csc(N)n3)[C@H]2SC1 [CEFIXIME] |  |  |  |  |  |  |  |  | 0.03 µg/mL (≈ 0.0662 µM)
N[C@@H](C(=O)N[C@@H]1C(=O)N2C(C(=O)O)=C(Cl)CS[C@H]12)c1ccccc1 [CEFACLOR ANHYDROUS] |  |  |  |  |  |  |  |  | 4 µg/mL (≈ 10.9 µM)
C[C@H]1COc2c(N3CCN(C)CC3)c(F)cc3c(=O)c(C(=O)O)cn1c23.C[C@H]1COc2c(N3CCN(C)CC3)c(F)cc3c(=O)c(C(=O)O)cn1c23.O [LEVOFLOXACIN] | < 0.06 µg/mL | < 0.016 µg/mL | < 0.06 µg/mL | 1 µg/mL |  |  |  |  | 
C[C@@H](O)[C@H]1C(=O)N2C(C(=O)O)=C(S[C@@H]3CN[C@H](C(=O)N(C)C)C3)[C@H](C)[C@H]12 [MEROPENEM] | < 0.06 µg/mL | 0.125 µg/mL (≈ 0.326 µM) | 0.064 µg/mL (≈ 0.167 µM) |  | 0.125 µg/mL | 0.064 µg/mL (≈ 0.167 µM) |  |  | 
